Data taken from US11034650B2, “Compounds useful for treating a Mannheimia haemolytica or Histophilus somni infection” (Intervet Inc., priority 2016, dated 2021).
Values after ≈ are worked out from the molar mass of the structure shown.

Legend:
Type in all cases: cell-based
[1] = tested on: Mannheimia haemolytica MH 13093 (XB0472-6014.1, BRD field isolate); assay: MIC, broth-microdilution (CLSI VET01-A4), strain MH 13093; conditions: Mannheimia haemolytica strain MH 13093, broth-microdilution; unit assumed
How it was run: (§1)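 Two-fold serial dilutions of each compound were prepared, bacteria were grown in them, and plates were then inspected visually. No turbidity at the lowest concentration defined the MIC.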

[2] = tested on: Mannheimia haemolytica MH 10720 (154, BRD field isolate); assay: MIC, broth-microdilution (CLSI VET01-A4), strain MH 10720; conditions: Mannheimia haemolytica strain MH 10720, broth-microdilution; unit assumed
How it was run: as §1

[3] = tested on: Mannheimia haemolytica MH 12587 (1071, BRD field isolate, macrolide-resistance: erm+, E+); assay: MIC, broth-microdilution (CLSI VET01-A4), strain MH 12587; conditions: Mannheimia haemolytica strain MH 12587, broth-microdilution; unit assumed
How it was run: as §1

[4] = tested on: Pasteurella multocida PM 6267 (P 2225 (L386), reference strain, mouse infection strain); assay: MIC, broth-microdilution (CLSI VET01-A4), strain PM 6267; conditions: Pasteurella multocida strain PM 6267, broth-microdilution; unit assumed
How it was run: as §1

[5] = tested on: Pasteurella multocida PM 12080 (IV102277-0093, BRD field isolate); assay: MIC, broth-microdilution (CLSI VET01-A4), strain PM 12080; conditions: Pasteurella multocida strain PM 12080, broth-microdilution; unit assumed
How it was run: as §1

[6] = tested on: Mannheimia haemolytica MH 6374 (ATCC 33396, reference strain); assay: MIC, broth-microdilution (CLSI VET01-A4), strain MH 6374; conditions: Mannheimia haemolytica strain MH 6374, broth-microdilution; unit assumed
How it was run: as §1

[7] = tested on: Pasteurella multocida PM 10775 (080130003051, BRD field isolate); assay: MIC, broth-microdilution (CLSI VET01-A4), strain PM 10775; conditions: Pasteurella multocida strain PM 10775, broth-microdilution; unit assumed
How it was run: as §1

[8] = tested on: Mannheimia haemolytica MH 13065 (XB0446-6003.9, BRD field isolate); assay: MIC, broth-microdilution (CLSI VET01-A4), strain MH 13065; conditions: Mannheimia haemolytica strain MH 13065, broth-microdilution; unit assumed
How it was run: as §1

[9] = tested on: Pasteurella multocida PM 6391 (ATCC 43137, reference strain); assay: MIC, broth-microdilution (CLSI VET01-A4), strain PM 6391; conditions: Pasteurella multocida strain PM 6391, broth-microdilution; unit assumed
How it was run: as §1

[10] = tested on: Mannheimia haemolytica MH 6357 (M7/2, reference strain, cattle infection strain); assay: MIC, broth-microdilution (CLSI VET01-A4), strain MH 6357; conditions: Mannheimia haemolytica strain MH 6357, broth-microdilution; unit assumed
How it was run: as §1

MIC PM 6267 [4] [µg/mL]	MIC PM 12080 [5] [µg/mL]	MIC PM 10775 [7] [µg/mL]	MIC PM 6391 [9] [µg/mL]	SMILES	MIC MH 13093 [1] [µg/mL]	MIC MH 10720 [2] [µg/mL]	MIC MH 12587 [3] [µg/mL]	MIC MH 6374 [6] [µg/mL]	MIC MH 13065 [8] [µg/mL]	MIC MH 6357 [10] [µg/mL]
1.6 (≈ 3.63 µM)	0.8 (≈ 1.82 µM)	≤ 0.1	0.8 (≈ 1.82 µM)	COCCNCc1ccc(C#Cc2ccc(C(=O)N[C@H](C(=O)NO)C(C)(C)O)cc2)cn1 [Compound 325]	3.1 (≈ 7.04 µM)	0.4 (≈ 0.908 µM)	3.1 (≈ 7.04 µM)	1.6 (≈ 3.63 µM)	1.6 (≈ 3.63 µM)	0.8 (≈ 1.82 µM)
0.2 (≈ 0.447 µM)	0.2 (≈ 0.447 µM)	≤ 0.1	0.4 (≈ 0.894 µM)	CC(C)[C@H](NC(=O)c1ccc(C#Cc2ccc(CNC3CCCCC3)cc2)cc1)C(=O)NO [Compound 208]	12.5 (≈ 27.9 µM)	3.1 (≈ 6.93 µM)	25 (≈ 55.9 µM)	12.5 (≈ 27.9 µM)	12.5 (≈ 27.9 µM)	12.5 (≈ 27.9 µM)
0.4 (≈ 0.748 µM)	0.4 (≈ 0.748 µM)	≤ 0.1	0.8 (≈ 1.5 µM)	CC(C)(C(NC(=O)c1ccc(C#Cc2ccc(CNCc3ccc(Cl)cc3)cc2)cc1)C(=O)NO)[N+](=O)[O-] (stereo not shown) [Compound 277]	1.6 (≈ 2.99 µM)	0.4 (≈ 0.748 µM)	3.1 (≈ 5.79 µM)	1.6 (≈ 2.99 µM)	1.6 (≈ 2.99 µM)	1.6 (≈ 2.99 µM)
25 (≈ 54.8 µM)	0.8 (≈ 1.75 µM)	1.6 (≈ 3.5 µM)	0.2 (≈ 0.438 µM)	CC(=O)C(NC(=O)c1ccc(C#Cc2ccc(CNCc3cccnc3)cc2)cc1)C(=O)NO (stereo not shown) [Compound 407]	6.3 (≈ 13.8 µM)	6.3 (≈ 13.8 µM)	1.6 (≈ 3.5 µM)	6.3 (≈ 13.8 µM)	6.3 (≈ 13.8 µM)	3.1 (≈ 6.79 µM)
1.6 (≈ 3.15 µM)	0.4 (≈ 0.788 µM)	≤ 0.1	1.6 (≈ 3.15 µM)	CSC(C)(C)C(NC(=O)c1ccc(C#Cc2ccc(CNCc3ccccc3)s2)cc1)C(=O)NO (stereo not shown) [Compound 304]	3.1 (≈ 6.11 µM)	≤ 0.1	1.6 (≈ 3.15 µM)	1.6 (≈ 3.15 µM)	1.6 (≈ 3.15 µM)	0.8 (≈ 1.58 µM)
25 (≈ 61.4 µM)	3.1 (≈ 7.61 µM)	3.1 (≈ 7.61 µM)	0.2 (≈ 0.491 µM)	CCCNCc1ccc(C#Cc2ccc(C(=O)N[C@@H](C(C)=O)C(=O)NO)cc2)cc1 [Compound 406]	12.5 (≈ 30.7 µM)	6.3 (≈ 15.5 µM)	1.6 (≈ 3.93 µM)	25 (≈ 61.4 µM)	25 (≈ 61.4 µM)	12.5 (≈ 30.7 µM)
0.8 (≈ 1.59 µM)	0.2 (≈ 0.398 µM)	≤ 0.1	0.8 (≈ 1.59 µM)	CSC(C)(C)[C@H](NC(=O)c1ccc(C#Cc2ccc(CNCc3ccccc3)nc2)cc1)C(=O)NO [Compound 339]	1.6 (≈ 3.18 µM)	≤ 0.1	1.6 (≈ 3.18 µM)	1.6 (≈ 3.18 µM)	0.8 (≈ 1.59 µM)	0.8 (≈ 1.59 µM)
1.6 (≈ 3.18 µM)	0.4 (≈ 0.796 µM)	≤ 0.1	0.8 (≈ 1.59 µM)	COCCNCc1ccc(C#Cc2ccc(C(=O)N[C@H](C(=O)NO)C(C)(C)S(C)(=O)=O)cc2)cn1 [Compound 349]	3.1 (≈ 6.17 µM)	0.8 (≈ 1.59 µM)	6.3 (≈ 12.5 µM)	3.1 (≈ 6.17 µM)	6.3 (≈ 12.5 µM)	1.6 (≈ 3.18 µM)
0.4 (≈ 0.812 µM)	≤ 0.1	≤ 0.1	≤ 0.1	CC(C)(C(NC(=O)c1ccc(C#Cc2ccc(CNCC(F)(F)F)cc2)cc1)C(=O)NO)[N+](=O)[O-] (stereo not shown) [Compound 288]	0.8 (≈ 1.62 µM)	≤ 0.1	0.8 (≈ 1.62 µM)	0.8 (≈ 1.62 µM)	0.4 (≈ 0.812 µM)	0.4 (≈ 0.812 µM)
≤ 0.1	≤ 0.1	≤ 0.1	0.2 (≈ 0.431 µM)	CC1CN(Cc2ccc(C#Cc3ccc(C(=O)N[C@H](C(=O)NO)C(C)C)cc3)cc2)CC(C)O1 (stereo partly shown) [Compound 165]	12.5 (≈ 27 µM)	3.1 (≈ 6.69 µM)	25 (≈ 53.9 µM)	12.5 (≈ 27 µM)	12.5 (≈ 27 µM)	6.3 (≈ 13.6 µM)
≤ 0.1	0.2 (≈ 0.402 µM)	≤ 0.1	0.4 (≈ 0.804 µM)	CC(C)([C@H](NC(=O)c1ccc(C#Cc2ccc(CNC3CCC3)cc2)cc1)C(=O)NO)S(C)(=O)=O [Compound 263]	3.1 (≈ 6.23 µM)	0.8 (≈ 1.61 µM)	6.3 (≈ 12.7 µM)	3.1 (≈ 6.23 µM)	3.1 (≈ 6.23 µM)	6.3 (≈ 12.7 µM)
≤ 0.1	≤ 0.1	≤ 0.1	≤ 0.1	CC(C)(O)[C@H](NC(=O)c1ccc(C#Cc2ccc(CNCc3ccnc(Cl)c3)cc2)cc1)C(=O)NO [Compound 229]	0.4 (≈ 0.789 µM)	≤ 0.1	0.4 (≈ 0.789 µM)	0.4 (≈ 0.789 µM)	0.2 (≈ 0.394 µM)	0.4 (≈ 0.789 µM)

Continued, compound first:

SMILES	MIC PM 6267 [4] [µg/mL]	MIC PM 12080 [5] [µg/mL]	MIC PM 10775 [7] [µg/mL]	MIC PM 6391 [9] [µg/mL]	MIC MH 13093 [1] [µg/mL]	MIC MH 10720 [2] [µg/mL]	MIC MH 12587 [3] [µg/mL]	MIC MH 6374 [6] [µg/mL]	MIC MH 13065 [8] [µg/mL]	MIC MH 6357 [10] [µg/mL]
CC(C)(O)[C@H](NC(=O)c1ccc(C#Cc2ccc(CNCC#N)s2)cc1)C(=O)NO [Compound 358]	0.8 (≈ 1.88 µM)	0.8 (≈ 1.88 µM)	0.2 (≈ 0.469 µM)	1.6 (≈ 3.75 µM)	6.3 (≈ 14.8 µM)	0.8 (≈ 1.88 µM)	6.3 (≈ 14.8 µM)	1.6 (≈ 3.75 µM)	6.3 (≈ 14.8 µM)	3.1 (≈ 7.27 µM)
COCCNCc1ccc(C#Cc2ccc(C(=O)N[C@H](C(=O)NO)C(C)(C)O)cc2)s1 [C.292]	1.6 (≈ 3.59 µM)	0.4 (≈ 0.898 µM)	≤ 0.1	0.8 (≈ 1.8 µM)	1.6 (≈ 3.59 µM)	≤ 0.1	1.6 (≈ 3.59 µM)	0.8 (≈ 1.8 µM)	0.8 (≈ 1.8 µM)	0.4 (≈ 0.898 µM)
O=C(N[C@@H](CO)C(=O)NO)c1ccc(C#Cc2ccc(CN3CCCOCC3)cc2)cc1 [Compound 215]	≤ 0.1	≤ 0.1	≤ 0.1	≤ 0.1	6.3 (≈ 14.4 µM)	0.8 (≈ 1.83 µM)	6.3 (≈ 14.4 µM)	3.1 (≈ 7.09 µM)	3.1 (≈ 7.09 µM)	3.1 (≈ 7.09 µM)
CSC(C)(C)[C@H](NC(=O)c1ccc(C#Cc2ccc(CNCc3ccco3)s2)cc1)C(=O)NO [Compound 308]	0.8 (≈ 1.61 µM)	0.4 (≈ 0.804 µM)	≤ 0.1	0.4 (≈ 0.804 µM)	1.6 (≈ 3.22 µM)	≤ 0.1	1.6 (≈ 3.22 µM)	0.8 (≈ 1.61 µM)	0.8 (≈ 1.61 µM)	0.8 (≈ 1.61 µM)
CON=C(C)[C@H](NC(=O)c1ccc(C#Cc2ccc(CNCc3ccc(C)cc3)cc2)cc1)C(=O)NO [Compound 393]	6.3 (≈ 12.6 µM)	0.4 (≈ 0.802 µM)	0.8 (≈ 1.6 µM)	0.2 (≈ 0.401 µM)	6.3 (≈ 12.6 µM)	0.8 (≈ 1.6 µM)	0.4 (≈ 0.802 µM)	1.6 (≈ 3.21 µM)	6.3 (≈ 12.6 µM)	0.8 (≈ 1.6 µM)
CC(C)([C@H](NC(=O)c1ccc(C#Cc2ccc(CNCc3ccncc3)cc2)cc1)C(=O)NO)S(C)(=O)=O [C.261]	≤ 0.1	≤ 0.1	≤ 0.1	≤ 0.1	0.4 (≈ 0.748 µM)	≤ 0.1	0.8 (≈ 1.5 µM)	0.4 (≈ 0.748 µM)	0.4 (≈ 0.748 µM)	0.4 (≈ 0.748 µM)
C=CCNCc1ccc(C#Cc2ccc(C(=O)N[C@H](C(=O)NO)C(C)(C)SC)cc2)cc1 [C.236]	≤ 0.1	0.4 (≈ 0.886 µM)	≤ 0.1	0.4 (≈ 0.886 µM)	0.8 (≈ 1.77 µM)	≤ 0.1	1.6 (≈ 3.54 µM)	0.8 (≈ 1.77 µM)	0.8 (≈ 1.77 µM)	0.8 (≈ 1.77 µM)
CSC(C)(C)[C@H](NC(=O)c1ccc(C#Cc2ccc(CNCc3cccnc3)s2)cc1)C(=O)NO [Compound 306]	0.8 (≈ 1.57 µM)	0.4 (≈ 0.786 µM)	≤ 0.1	0.4 (≈ 0.786 µM)	0.8 (≈ 1.57 µM)	0.2 (≈ 0.393 µM)	3.1 (≈ 6.09 µM)	0.8 (≈ 1.57 µM)	0.8 (≈ 1.57 µM)	0.8 (≈ 1.57 µM)
CC[C@H](C)[C@H](NC(=O)c1ccc(C#Cc2ccc(CNCc3ccnc(Cl)c3)cc2)cc1)C(=O)NO [Compound 190]	≤ 0.1	0.2 (≈ 0.396 µM)	≤ 0.1	0.4 (≈ 0.792 µM)	1.6 (≈ 3.17 µM)	0.4 (≈ 0.792 µM)	3.1 (≈ 6.14 µM)	3.1 (≈ 6.14 µM)	1.6 (≈ 3.17 µM)	1.6 (≈ 3.17 µM)
CC(=O)C(NC(=O)c1ccc(C#Cc2ccc(CNCc3ccnc(Cl)c3)cc2)cc1)C(=O)NO (stereo not shown) [Compound 408]	6.3 (≈ 12.8 µM)	0.4 (≈ 0.815 µM)	0.8 (≈ 1.63 µM)	≤ 0.1	1.6 (≈ 3.26 µM)	1.6 (≈ 3.26 µM)	0.4 (≈ 0.815 µM)	1.6 (≈ 3.26 µM)	1.6 (≈ 3.26 µM)	1.6 (≈ 3.26 µM)
